Data: patent EP0719267B1, “SECOND MESSENGER CELL SIGNALING INHIBITORS” (CELL THERAPEUTICS, INC., priority 1993, dated 1994)

Legend:
Balb/3T3 cells = test: PDGF-induced proliferation of Balb/3T3 cells; type: cell-based, murine
Protocol: Balb/3T3 cells respond vigorously to PDGF stimulation, and are useful in vitro models for further study of PDGF-induced proliferation. Disregulated PDGF-proliferative response has been linked to a variety of diseases, including, e.g., restenosis, atherosclerosis, fibrosis, and tumor cell angiogenesis. Cells were plated in low serum-containing medium for 24 hours prior to stimulation with various concentrations of inventive compound no. 45. PDGF-BB was added at constant 10 µM concentrations. Tritiated thymidine was added and cells harvested for scintillation counting 24 hours later. Figure 15 illustrates a dose response curve from this assay, including an IC50 value of approximately 0.08 µM, exemplifying inhibitory activity of the tested compound.
In another investigation similar to the Balb/3T3 proliferation assay of Example 32, IC50 and ID50 values for inventive compounds nos. 70, 45, 59 and 58 were determined. LD50 values were determined using a cytotoxicity assay, as in Example 32. In these assays, Balb/3T3 cells, stimulated with PDGF and treated with one of the above inventive compounds in a manner identical to the tritiated thymidine procedure above, were incubated instead with a viable dye BCECF, a fluorescent dye. Fluorescence was measured using a fluorescent plate reader. […] Figure 17 illustrates assay results by comparing […] value against LD50 values for the inventive compounds tested. Most compounds tested were non-cytotoxic yet were significant inhibitors of proliferation.
Inventive compounds nos. 77,7 and 78 were added at various concentrations one hour prior to PDGF stimulation. PDGF-BB was added at a constant 10 µM concentrations along with tritiated thymidine. The cells were allowed to incubate for one day, following addition of PDGF and tritiated thymidine. 24 Hours later, the cells were harvested and counted by liquid scintillation counting. Results for compounds nos.77, 7 and 78 are shown in figures 26A, 26B and 26C, respectively. Background counts were approximately 1% of control levels.
Results obtained for compound no. 50 in the PDGF-induced proliferation of Balb/3T3 cells (Example 32), reported in figure 28, illustrate the inhibitive properties of this compound on proliferation induced by PDGF, representing significant inhibition at concentrations as low as 2 µM. […] 50, are capable of reducing tumor cell growth by blocking oncogene-induced events.
Figure 66 reports that inventive compound no. 45 inhibited PDGF-induced murine BALB/3T3 proliferation. Procedurally, cells were rested overnight in 0.2% serum and stimulated with 25 ng/ml PDGF. Compound no. 45 was added 1 hour prior to stimulation. Cells were pulsed with ^3H-TdR 24 hours later and harvested for scintillation counting 4 hours later.
Figures 66A and 66B are a dose response and cytoxicity curves, respectively, for inhibition of proliferation in Balb/3T3 cells by inventive compound no. 58. In the assay protocol, cells were starved overnight in 0.5% serum containing medium, followed by stimulation with 20 ng/ml PDGF for 24 hours. The cells were labeled with ^3H-TdR for 4 hours and harvested and counted by scintillation. Figure 66B illustrates that inventive compound no.
Figure 68 illustrates an effect of the delayed addition of inventive compound no. 58 to Balb/3T3 proliferation in response to PDGF-BB. Cells were stimulated with PDGF (20 ng/ml) and inventive compound no. 58 added either simultaneous with PDGF (0) or at various times after addition of PDGF, up to 6 hours later. At 24 hours, the cells were pulsed with ^3H-TdR and counted by scintillation four hours later. […] 58 was added as late as 20 hours after PDGF.
Figure 69 illustrates that inventive compound no. […] In the assay protocol, cells were serum starved for 24 hours before adding either 20 ng/ml PDGF or 10% serum. The cells were pulsed with ^3HTdR 24 hours later. Inventive compound no.

[1] = tested on: vascular cell adhesion molecule (VCAM); test: VCAM expression on TNF-stimulated HUVEC (flow cytometry); type: cell-based, human
Text: This example illustrates an investigation of inhibition of vascular cell adhesion molecule (VCAM) expression on HUVEC by compound no. 58. VCAM expression by endothelial cells is an early event in the pathogenesis of atherogenesis and multiple sclerosis, among other various autoimmune diseases. Figure 23 is a series of frequency histograms obtained in this exemplary assay. […] In the absence of TNF, VCAM expression on HUVEC was at a very low level. […] The average increase in cell fluorescence was approximately 10-fold. The bottom panel is a frequency histogram of TNF-stimulated cells in the presence of compound no 58. […] 58.
Assay results reported in figures 63A and 63B, illustrate that inventive compound no. […] HUVEC were stimulated with TNFα (20 ng/ml) for 5 hours and stained using fluorescent antibodies to ICAM-1 or VCAM-1. Cell surface expression was analyzed by flow cytometry. All values were normalized to the peak mean fluorescence of the positive control (=100%). Average levels of induction using TNFα- stimulation were 20-fold higher for ICAM-1 and over 50-fold higher for VCAM-1 from that of nonstimulated controls, as shown in figures 63 and 63B.
Figures 73A and 73B illustrate inhibition by inventive compound no. 58 of VCAM or ICAM expression, respectively, in HUVEC activated by TNF. Cells were stimulated for 8 hours in the presence or absence of inventive compounds and stained with fluorescent antibodies to VCAM or ICAM and analyzed by flow cytometry.

[2] = tested on: THP-1 cell adhesion to IL-1-activated HUVEC; test: THP-1 cell adhesion to activated HUVEC; type: cell-based, human
Protocol: This example illustrates inhibitive activity of compounds nos. 50 and 57 on THP-1 cell adhesion to IL-1-activated HUVEC. In an investigative assay, HUVEC were stimulated with IL-1 (10 ng/ml), both in the absence and presence of varying concentrations of drugs for 8 hours in a 96-well microtiter plate. In the wellplate, human monocytic leukemia cell line THP-1 cells were added at 50,000 cells per well. The THP-1 cells were pre-incubated with BCECF, a fluorescence dye that can be used to measure cell number using a fluorescence plate reader. After 10 minutes at 37 °C, the microtiter plate was inverted and spun at 900 rpm. The remaining adhering THP-1 cells were then analyzed.
Inventive compound no. […] HUVEC were stimulated with 20 ng/ml IL-1β or 15 ng/ml TNFα for 6 hours. Fluorescence labeled (BCECF-AM) THP-1 cells were allowed to adhere to the HUVEC for 20 minutes, washed once and the amount of fluorescence remaining analyzed on a fluorescence plate reader. The results, reported in figures 62A and 62B (TNFα or IL-1β, respectively), show inhibition of THP-1 adhesion to HUVEC.
Figures 72A and 72B illustrate that inventive compound no. 58 inhibited THP-1 cell adhesion to either TNF or IL-1-stimulated HUVEC, respectively. Procedurally, HUVEC were stimulated with TNF or IL-1 for 8 hours and THP-1 cells added for 20 minutes. The HUVEC were then washed and analyzed for adherence. Inventive compound no. 58 inhibited adhesion of THP-1 cells to HUVEC with an IC50 of approximately 1 µM for both TNF and IL-1.

CCCCCCCCNCC(O)CCCCCCCCCn1c(=O)c2c(ncn2C)n(C)c1=O (stereo not drawn) [compound no. 45]
IC50 (Balb/3T3 cells; Mus musculus, BALB/3T3, PDGF-BB, low serum 24 hours): ~0.08 µM | VCAM-1 cell surface expression ([1]; TNFα (20 ng/ml), 5 hours): inhibited adhesion receptor expression on HUVEC | inhibition of THP-1 adhesion ([2]; 20 ng/ml IL-1β or 15 ng/ml TNFα, 6 hours): inhibited adhesion of monocytic leukemia cells (THP-1) to IL-1β or TNFα-activated HUVEC

CCCCCCCCCCCCNCC(O)CCCCCCCCCn1c(=O)c2c(ncn2C)n(C)c1=O (stereo not drawn) [compound no. 50, 1-(11-Dodecylamino-10-hydroxyundecyl)-3,7-dmethylxanthine]
minimal effective concentration (Balb/3T3 cells; Mus musculus, BALB/3T3, fig. 28, read-out: concentrations giving significant inhibition): ≥ 2 µM | inhibition of THP-1 adhesion ([2]; IL-1 (10 ng/ml), 8 hours): significantly inhibited THP-1 adhesion, even at low concentratations

COc1cc(CNCC(O)CCCCCCCCCn2c(=O)c3c(ncn3C)n(C)c2=O)cc(OC)c1OC (stereo not drawn) [compound no. 58, 1-[11-(3,4,5-Trimethoxybenzylamino)-10-hydroxyundecyl]-3,7-dimethylxanthine]
PDGF-induced versus serum-induced proliferation (Balb/3T3 cells; 20 ng/ml PDGF or 10% serum): inhibited PDGF- induced proliferation in Balb/3T3 cells to a greater extent than serum-induced proliferation | effect on serum-induced proliferation (Balb/3T3 cells; 10% serum): did not have a significant effect on serum-induced Balb/3T3 proliferation | IC50 (Balb/3T3 cells; Mus musculus, BALB/3T3, 20 ng/ml PDGF, 24 hours): 0.2 to 0.5 µM | inhibition with delayed addition (Balb/3T3 cells; added as late as 20 hours after PDGF): nearly complete inhibition in proliferation | factor of reduction of mean fluorescence (VCAM expression) ([1]; TNF 6 hours, versus TNF-stimulated cells without compound): 8 | VCAM expression ([1]; TNF, 8 hours): inhibition | IC50 ([2]; Homo sapiens, TNF-stimulated HUVEC, 8 hours): ~1 µM
